Test results from patent US12233089B2, “Foods to promote better health and/or to maintain homeostasis and method of production thereof” (Vector Vitale IP LLC, priority 2021, dated 2025).
Structures can show the parent of a compound that is named as a salt. Where two headings read alike, the source gives them in different places. Marks after values point to notes of the source that are not given here.

Assays:
[1] = system: RNA and DNA synthesis; experiment: Inhibition of RNA and DNA synthesis; assay type: cell-based
[2] = system: S. aureus ATCC 25923; experiment: Minimum bactericidal concentration (MBC), S. aureus; assay type: cell-based
Method: (§1) To evaluate the bactericidal action of the antibacterial composition based on light isotope ^64Zne the minimum bactericidal concentration (MBC) was determined by plating out 0.1 ml of the contents of each tube containing the antibacterial composition on Mueller-Hinton medium. The incubation was at 37° C. for 24 h.
(§2) The MBC of the test samples was determined as the lowest concentration at which there was no growth on Mueller-Hinton agar medium.
(§3) The conditions of the experiment were like those for Zn-64 compound.

[3] = system: E. coli ATCC 25922; experiment: Minimum bactericidal concentration (MBC), E. coli; assay type: cell-based
Method: as §1, §2, §3

[4] = system: P. aeruginosa ATCC 27853; experiment: MIC (bacteriostatic activity), P. aeruginosa; assay type: cell-based; conditions: for MIC: Table 5
Description: as §3

[5] = system: P. aeruginosa ATCC 27853; experiment: Minimum bactericidal concentration (MBC), P. aeruginosa; assay type: cell-based
Method: as §1, §2, §3

[6] = system: MM-4 mouse melanoma cells; experiment: In vitro analysis of viability of MM-4 mouse melanoma cells; assay type: cell-based
Description: A second study was done on mouse model of lymphocytic leukemia, strain of L1210 leukemia cells, mouse melanoma model (MM-4 cell line derived from mouse melanoma cells of strain B16). Typical results are below.

[7] = system: Epstein-Barr virus; experiment: Cytotoxicity and antiviral activity against Epstein-Barr virus
[8] = system: MMP-2; experiment: Activities of latent and active forms of metalloproteinase 2 in MM-4 cells
[9] = system: rats with LPS-induced Parkinson's disease; experiment: LPS-induced Parkinson's disease in rats; assay type: in vivo
Description: Effects of ^64Zn-KLS-1 on Local and Systemic Immune Reactivity, Behavioural and Motor Functions in Rats with LPS-Induced Experimental Parkinsonism

[10] = system: pro-inflammatory (IL-1, IL-6, IL-12, IFN-γ) and anti-inflammatory (IL-4, IL-10, TGF) cytokines; conditions: adipose tissue, M ± m, n = 10
Description: Given the above, the next phase was to find out whether the administration of Zn-64 stable isotope in aspartate form influences the cytokine profile in obese animals.

[11] = system: rat models of Aβ1-40-induced AD; experiment: Rat model of Alzheimer's disease induced by infusion of Aβ 1-40; assay type: in vivo, rats
Description: The Effect of ^64Zn-Asp on Cognitive Symptomatology in Rats with Different Models of Alzheimer's Disease Induced by Infusion of a Mix of Beta-Amyloid Peptides

[12] = system: pro-inflammatory (IL-1, IL-6, IL-12, IFN-γ) and anti-inflammatory (IL-4, IL-10, TGF) cytokines; experiment: Cytokine profile in the serum of experimental animals; assay type: in vivo, rats; conditions: M ± m, n = 10
Description: As mentioned above, the pathogenesis of obesity is accompanied by a systemic chronic inflammatory process, the intensity of which can be assessed by the serum levels of pro- and anti-inflammatory cytokines.

[13] = system: type 1 diabetes; experiment: Development of type 1 diabetes in vivo
[14] = system: MMP-9; experiment: Activities of latent and active forms of metalloproteinase 9 in MM-4 cells; conditions: 16.69 μg/ml
[15] = system: MM-4 cells; experiment: Immunocytochemistry of Bcl-2, Bax and p53 expression in MM-4 cells; assay type: cell-based, mouse
[16] = Glucose and pancreatic islets in vivo, model not given (section on obesity and type 1 & 2 diabetes)
[17] = system: animals on a high-fat diet (DIO); experiment: Diet induced obesity model (animals on a high-fat diet); assay type: in vivo, rats
Description: The preclinical study of the effects of Zn-64 Asp on key pathogenetic links in the development and progression of obesity in diet-induced obesity models provides strong ground for efficient use of Zn-64 Asp as therapeutic agent in the treatment of overweight and obese patients.

[18] = system: Epstein-Barr virus
[19] = system: herpes virus; assay type: cell-based; conditions: in vitro
[20] = system: BVDV—bovine viral diarrhea virus; assay type: cell-based; conditions: in vitro
[21] = system: influenza virus; experiment: In vitro reproduction of influenza virus; assay type: cell-based
[22] = system: S. aureus ATCC 25923; experiment: MIC (bacteriostatic activity), S. aureus; assay type: cell-based; conditions: Table 5
Description: as §3

[23] = system: E. coli ATCC 25922; experiment: MIC (bacteriostatic activity), E. coli; assay type: cell-based; conditions: Table 5
Description: as §3

[24] = LPS-induced Parkinson's disease
[25] = animals with AD, therapeutic administration

Compound: NC(CCC(=O)[O-])C(=O)[O-].[64Zn+2] (stereo not drawn) [^64Zne glutamate]
- RNA and DNA synthesis [1]: Inhibition
- MBC ([2]; 37° C. 24 h, Table 4): 0.046* mcg ^64Zne/ml
- MBC ([3]; 37° C. 24 h, Table 4): 0.37* mcg ^64Zne/ml
- bacteriostatic activity (in words) [4]: best results
- MBC ([5]; 37° C. 24 h, Table 4): >750 mcg ^64Zne/ml

Compound: NC(CC(=O)[O-])C(=O)[O-].[64Zn+2] (stereo not drawn) [Zn64 Aspartate, ^64Zne aspartate]
- suppressed proliferation of MM-4 cells compared with the control ([6]; 16.69 μg/ml): 22.2%
- reduction in the number of live melanoma cells compared with the control ([6]; 25.03 μg/ml): 49.2%
- IC20 ([6]; MM-4 cells): 16.69 µg/mL
- IC50 ([6]; MM-4 cells): 25.03 µg/mL
- assessment of cytotoxicity and antiviral activity for anti-EBV infection [7]: most promising
- decrease in the activity of active MMP-2 compared with the control ([8]; 16.69 μg/ml): 66.8%
- decrease in the activity of latent pro-MMP-2 compared with the control ([8]; 16.69 μg/ml): 76.5%
- suppression of the activity of MMP-2 compared with the control ([8]; 25.03 μg/ml): 76%
- dopaminergic neuron loss [9, 24]: Prevention
- harmful side effects [9, 24]: absence
- local and systemic inflammation [9, 24]: Inhibition
- metabolic activity of microglia [9, 24]: increase
- number of dopaminergic neurons in the substantia nigra ([9]; LPS-induced Parkinson's disease, rats): virtually full restoration
- systemic inflammatory responses ([9]; therapeutic administration, LPS-induced parkinsonism): reduces
- MBC ([2]; 37° C. 24 h, Table 4): 0.023* mcg ^64Zne/ml
- IFN-γ level ([10]; control animals (C)): 5.0 ± 0.8^ RU/mg protein
- IL-1 level ([10]; control animals (C)): 4.9 ± 1.7^ RU/mg protein
- IL-4 level ([10]; control animals (C)): 5.0 ± 0.4^ RU/mg protein
- IL-6 level ([10]; control animals (C)): 5.4 ± 0.3^ RU/mg protein
- IL-10 level ([10]; control animals (C)): 4.9 ± 0.2^ RU/mg protein
- IL-12 level ([10]; control animals (C)): 1.0 ± 0.03 RU/mg protein
- TGF level ([10]; control animals (C)): 5.1 ± 0.6^ RU/mg protein
- IFN-γ level ([10]; diet induced obesity (DIO)): 4.9 ± 0.8 RU/mg protein
- IL-1 level ([10]; diet induced obesity (DIO)): 5.8 ± 1.8 RU/mg protein
- IL-4 level ([10]; diet induced obesity (DIO)): 5.1 ± 1.2 RU/mg protein
- IL-6 level ([10]; diet induced obesity (DIO)): 6.1 ± 0.7 RU/mg protein
- IL-10 level ([10]; diet induced obesity (DIO)): 5.8 ± 0.8 RU/mg protein
- IL-12 level ([10]; diet induced obesity (DIO)): 1.99 ± 0.01 RU/mg protein
- TGF level ([10]; diet induced obesity (DIO)): 5.2 ± 0.9 RU/mg protein
- cognitive function ([11]; AD models): significantly improved
- body weight, water and feed intake ([11]; AD rats treated for 10 days): restored
- neuroinflammation ([11]; Aβ1-40-induced AD): almost complete resolution
- staining intensity of TH-immuno-positive cells ([11]; Aβ1-40 AD rats, hippocampal dopaminergic neurons): increased
- absolute number of circulating leukocytes [11, 25]: complete normalization
- neutrophilic lymphocytic coefficient (NLC) [11, 25]: complete normalization
- MBC ([3]; 37° C. 24 h, Table 4): 0.73* mcg ^64Zne/ml
- IFN-γ level ([12]; control animals (C)): 4.6 ± 0.6 RU/mg protein
- IL-1 level ([12]; control animals (C)): 3.5 ± 0.7 RU/mg protein
- IL-4 level ([12]; control animals (C)): 4.6 ± 0.8 RU/mg protein
- IL-6 level ([12]; control animals (C)): 4.3 ± 0.2^ RU/mg protein
- IL-10 level ([12]; control animals (C)): 4.1 ± 0.5 RU/mg protein
- IL-12 level ([12]; control animals (C)): 0.3 ± 0.04 RU/mg protein
- TGF level ([12]; control animals (C)): 4.1 ± 0.4 RU/mg protein
- IFN-γ level ([12]; diet induced obesity (DIO)): 4.1 ± 1.2 RU/mg protein
- IL-1 level ([12]; diet induced obesity (DIO)): 4.2 ± 0.4 RU/mg protein
- IL-4 level ([12]; diet induced obesity (DIO)): 5.6 ± 1.6 RU/mg protein
- IL-6 level ([12]; diet induced obesity (DIO)): 5.1 ± 0.4 RU/mg protein
- IL-10 level ([12]; diet induced obesity (DIO)): 6.8 ± 1.1 # RU/mg protein
- IL-12 level ([12]; diet induced obesity (DIO)): 2.4 ± 0.06 # RU/mg protein
- TGF level ([12]; diet induced obesity (DIO)): 5.7 ± 0.3 # RU/mg protein
- decrease of glucose concentration [13]: 26%
- decrease of glycosylated hemoglobin [13]: 30%
- increase of serum insulin content [13]: 13%
- decrease in the activity of active MMP-9 compared with the control [14]: 23.8%
- decrease in the activity of latent pro-MMP-9 compared with the control [14]: 61.2%
- decrease in the expression of Bcl-2 vs. control ([15]; 16.69 μg/ml): 69.5%
- expression of pro-apoptotic proteins Bax and p53 ([15]; 16.69 μg/ml): did not have any effect
- expression level of p53 (Y-5 clone) ([15]; 25.03 μg/ml): does not influence
- increased expression level of Bax compared with the control ([15]; 25.03 μg/ml): 8.9 times
- increased expression level of p53 (DO-7 clone) compared with the control ([15]; 25.03 μg/ml): 9.5 times
- expression of anti-apoptotic protein Bcl-2 ([15]; concentration not given): does not have any effect
- glucose concentration compared to the control group [16]: drop
- increase of insulin producing pancreatic islets area [16]: more than 100%
- fatty degeneration (exocrine part of the pancreas) ([17]; DIO group): Disappearance
- divalent metal ions (zinc, copper, manganese) in muscles, kidneys and liver ([17]; animal models of obesity): restoration of their normal physiological levels
- activity of antioxidant enzymes (superoxide dismutase and catalase) ([17]; animals on a high fat diet): increased activity
- levels of lipid peroxidation products and protein oxidative modification ([17]; animals on a high fat diet): decrease
- central and peripheral serotonin levels compared to untreated animal models of obesity ([17]; animals on a high-fat diet): restoration
- decrease of the area of hepatocytes compared to the group with obesity ([17]; animals on a high-fat diet): 41%
- increase of the cross-sectional surface area of the islets of Langerhans compared with the obesity group ([17]; animals on a high-fat diet): 43%
- lipid metabolism ([17]; animals on a high-fat diet): Improvement
- serotonin levels in the brain ([17]; animals on a high-fat diet): An increase
- weight and the amount of food consumed compared to the untreated animals ([17]; animals on a high-fat diet): Reduction
- bacteriostatic activity (in words) [4]: best results
- MBC ([5]; 37° C. 24 h, Table 4): >750 mcg ^64Zne/ml

Compound: O=C(O)CC(O)(CC(=O)O)C(=O)O [^64Zne citrate]
- assessment of cytotoxicity and antiviral activity for anti-EBV infection [18]: most promising
- RNA and DNA synthesis [1]: Inhibition

Compound: NC(CCC(=O)[O-])C(=O)[O-].[64Zn+2] (stereo not drawn) [zinc-64 light isotope glutamate]
- reproduction of herpes virus [19]: effectively inhibited
- reproduction of surrogate model of HCV (BVDV) virus [20]: effectively inhibited
- reproduction of influenza virus [21]: effectively inhibited

Compound: O=S(=O)([O-])[O-].[64Zn+2] [^64Zne sulfate]
- MBC ([2]; 37° C. 24 h, Table 4): 0.37* mcg ^64Zne/ml
- MBC ([2]; Table 6): 0.3662 mcg zinc/ml
- MBC ([3]; 37° C. 24 h, Table 4): 1.46* mcg ^64Zne/ml
- MBC ([3]; Table 6): 1.4648 mcg zinc/ml
- MIC [22]: 0.366 zinc mcg/ml
- MIC [23]: 0.0916 zinc mcg/ml
- MIC [4]: 46.875 zinc mcg/ml
- MBC ([5]; 37° C. 24 h, Table 4): 375 mcg ^64Zne/ml
- MBC ([5]; Table 6): 375 mcg zinc/ml

Compound: ^64Zne EDDS
- MBC ([2]; 37° C. 24 h, Table 4): 0.73* mcg ^64Zne/ml
- MBC ([2]; Table 6): 0.7324 mcg zinc/ml
- MBC ([3]; 37° C. 24 h, Table 4): 2.93* mcg ^64Zne/ml
- MBC ([3]; Table 6): 2.9296 mcg zinc/ml
- MIC [22]: 0.73 zinc mcg/ml
- MIC [23]: 0.18 zinc mcg/ml
- MIC [4]: 5.86 zinc mcg/ml
- MBC ([5]; 37° C. 24 h, Table 4): 375 mcg ^64Zne/ml
- MBC ([5]; Table 6): 375 mcg zinc/ml

Compound: O=S(=O)([O-])[O-].[Zn+2] [Natural zinc - sulfate, reference compound]
- MBC ([2]; Table 6): >750 mcg zinc/ml
- MBC ([3]; Table 6): >750 mcg zinc/ml
- MIC [22]: 93.75 zinc mcg/ml
- MIC [23]: 187.5 zinc mcg/ml
- MIC [4]: 750 zinc mcg/ml
- MBC ([5]; Table 6): >750 mcg zinc/ml

Compound: Zn64 EDDA
- assessment of cytotoxicity and antiviral activity for anti-EBV infection [18]: most promising
- bacteriostatic activity (in words) [4]: best results

Compound: N[C@@H](CCC(=O)[O-])C(=O)[O-].[Zn+2] [Zinc glutamate, reference compound]
- reproduction of herpes virus [19]: effectively inhibited
- reproduction of surrogate model of HCV (BVDV) virus [20]: effectively inhibited
- reproduction of influenza virus [21]: effectively inhibited
